Results taken from PubChem BioAssay (NCI).
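At the GI50, growth is halved. TGI is the concentration that stops growth completely.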

How the values were obtained:
Experiment in all cases: DTP human tumour cell line panel, 384-well format
K-562 leukemia = tested on: K-562 leukemia
SF-268 CNS = tested on: SF-268 CNS
NCI-H322M lung = tested on: NCI-H322M lung
TK-10 renal = tested on: TK-10 renal
OVCAR-3 ovarian = tested on: OVCAR-3 ovarian
SNB-75 CNS = tested on: SNB-75 CNS
SK-MEL-2 melanoma = tested on: SK-MEL-2 melanoma
HOP-62 NSCLC = tested on: HOP-62 NSCLC
PC-3 prostate = tested on: PC-3 prostate
SK-MEL-28 melanoma = tested on: SK-MEL-28 melanoma
SF-539 CNS = tested on: SF-539 CNS
SW-620 colon = tested on: SW-620 colon
NCI-H226 lung = tested on: NCI-H226 lung

Q: For `CNCc1ccc(C)c(NC(=O)c2ccc(Nc3nc(-c4ccccc4)c4ccccc4n3)cc2)c1`, which GI50 (K-562 leukemia) is on record?
A: 1400 nM

Q: And the TGI (K-562 leukemia)?
A: 2740 nM

Q: And the GI50 (SF-268 CNS)?
A: 1770 nM

Q: What about the TGI (SF-268 CNS) of the same compound?
A: 3170 nM

Q: And the GI50 (NCI-H322M lung)?
A: 1740 nM

Q: And the TGI (NCI-H322M lung)?
A: 3140 nM

Q: What about the GI50 (TK-10 renal) of the same compound?
A: 1810 nM

Q: And the TGI (TK-10 renal)?
A: 3290 nM

Q: What about the GI50 (OVCAR-3 ovarian) of the same compound?
A: 1780 nM

Q: What about the TGI (OVCAR-3 ovarian) of the same compound?
A: 3200 nM

Q: And the GI50 (SNB-75 CNS)?
A: 1850 nM

Q: What about the TGI (SNB-75 CNS) of the same compound?
A: 3300 nM

Q: What about the GI50 (SK-MEL-2 melanoma) of the same compound?
A: 1810 nM

Q: And the TGI (SK-MEL-2 melanoma)?
A: 3210 nM

Q: And the GI50 (HOP-62 NSCLC)?
A: 1910 nM

Q: What about the TGI (HOP-62 NSCLC) of the same compound?
A: 3330 nM

Q: What about the GI50 (PC-3 prostate) of the same compound?
A: 1690 nM

Q: What about the TGI (PC-3 prostate) of the same compound?
A: 3160 nM

Q: What about the GI50 (SK-MEL-28 melanoma) of the same compound?
A: 1690 nM

Q: What about the TGI (SK-MEL-28 melanoma) of the same compound?
A: 3060 nM

Q: And the GI50 (SF-539 CNS)?
A: 1710 nM

Q: And the TGI (SF-539 CNS)?
A: 3100 nM

Q: And the GI50 (SW-620 colon)?
A: 1850 nM

Q: And the TGI (SW-620 colon)?
A: 3280 nM

Q: And the GI50 (NCI-H226 lung)?
A: 1880 nM

Q: What about the TGI (NCI-H226 lung) of the same compound?
A: 3360 nM
